Experimental data taken from US10710978B2, “STK4 inhibitors for treatment of hematologic malignancies” (Dana-Farber Cancer Institute, Inc., priority 2015, dated 2020).
Read-outs that look alike come from different tables or passages of the source.

Columns and labels:
[1] = molecular target: STK24 (MST3) (Homo sapiens (Human), UniProt Q9Y6E0); assay: Z-lyte biochemical IC50 assay (Invitrogen); conditions: ATP concentration matched the Km
In short: (§1)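 FRET-based Z-lyte kinase assays run at Invitrogen, ATP at each kinase's Km; for STK4, 6.25-160 ng enzyme with 2 μM Ser/Thr 07 peptide in HEPES pH 7.5, MgCl2, EGTA, Brij-35, 1 h reaction then development reagent. 10-point 3-fold titration from 10 μM.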

[2] = molecular target: STK4 (MST1) (Homo sapiens (Human), UniProt Q13043); assay: Z-lyte biochemical IC50 assay (Invitrogen); conditions: ATP concentration matched the Km
In short: as §1

[3] = test system: AurA, AurB, AurC; assay: KiNativ assay; format: binding; conditions: H929 live cell
Procedure: (§2) Biochemical IC50s of the compounds of the present disclosure against various kinases were measured in a KiNativ assay. Compounds were screened in duplicate at 10 μM in H929 live cell. IC50 was measured via Mass spectroscopy (MS).

[4] = molecular target: CK1g3 (Homo sapiens (Human), UniProt Q9Y6M4); assay: KiNativ assay; format: binding; conditions: H929 live cell
Procedure: as §2

[5] = molecular target: CaMKK2 (Homo sapiens (Human), UniProt Q96RR4); assay: KiNativ assay; format: binding; conditions: H929 live cell
Procedure: as §2

[6] = molecular target: EphB2 (Homo sapiens (Human), UniProt P29323); assay: KiNativ assay; format: binding; conditions: H929 live cell
Sequence of EphB2 (P29323 19-1055): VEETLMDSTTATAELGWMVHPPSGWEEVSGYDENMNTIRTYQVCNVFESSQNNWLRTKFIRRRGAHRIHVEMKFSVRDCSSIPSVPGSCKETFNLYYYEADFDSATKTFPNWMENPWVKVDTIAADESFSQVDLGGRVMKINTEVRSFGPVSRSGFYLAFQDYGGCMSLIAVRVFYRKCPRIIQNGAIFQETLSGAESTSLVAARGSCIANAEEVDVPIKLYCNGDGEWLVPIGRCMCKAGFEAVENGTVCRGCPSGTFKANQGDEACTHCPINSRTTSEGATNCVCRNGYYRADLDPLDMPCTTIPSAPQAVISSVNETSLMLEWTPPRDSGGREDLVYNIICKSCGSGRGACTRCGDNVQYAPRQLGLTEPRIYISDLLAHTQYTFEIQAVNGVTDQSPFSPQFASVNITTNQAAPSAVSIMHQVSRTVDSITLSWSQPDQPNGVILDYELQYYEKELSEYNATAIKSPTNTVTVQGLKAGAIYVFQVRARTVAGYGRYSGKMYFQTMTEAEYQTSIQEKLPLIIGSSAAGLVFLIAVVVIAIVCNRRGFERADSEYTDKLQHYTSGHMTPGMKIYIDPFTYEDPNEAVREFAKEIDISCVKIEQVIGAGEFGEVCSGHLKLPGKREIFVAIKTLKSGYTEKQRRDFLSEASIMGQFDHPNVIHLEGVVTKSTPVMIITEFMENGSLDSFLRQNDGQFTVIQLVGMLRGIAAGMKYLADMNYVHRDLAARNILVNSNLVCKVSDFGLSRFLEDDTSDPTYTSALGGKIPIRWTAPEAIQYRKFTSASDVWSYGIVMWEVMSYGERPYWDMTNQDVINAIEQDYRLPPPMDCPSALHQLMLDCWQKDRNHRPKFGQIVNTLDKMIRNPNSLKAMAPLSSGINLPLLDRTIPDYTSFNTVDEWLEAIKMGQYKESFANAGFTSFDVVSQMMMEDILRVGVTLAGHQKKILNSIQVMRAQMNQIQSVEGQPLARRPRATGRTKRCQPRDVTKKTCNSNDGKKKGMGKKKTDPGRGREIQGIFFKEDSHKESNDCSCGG
Procedure: as §2

[7] = test system: FYN, SRC, YES; assay: KiNativ assay; format: binding; conditions: H929 live cell
Procedure: as §2

[8] = molecular target: IKKa (Homo sapiens (Human), UniProt O15111); assay: KiNativ assay; format: binding; conditions: H929 live cell
Procedure: as §2

[9] = test system: IKKe, TBK1; assay: KiNativ assay; format: binding; conditions: H929 live cell
Procedure: as §2

[10] = molecular target: MAP2K6 (Homo sapiens (Human), UniProt P52564); assay: KiNativ assay; format: binding; conditions: H929 live cell
Sequence of MAP2K6 (P52564 whole entry): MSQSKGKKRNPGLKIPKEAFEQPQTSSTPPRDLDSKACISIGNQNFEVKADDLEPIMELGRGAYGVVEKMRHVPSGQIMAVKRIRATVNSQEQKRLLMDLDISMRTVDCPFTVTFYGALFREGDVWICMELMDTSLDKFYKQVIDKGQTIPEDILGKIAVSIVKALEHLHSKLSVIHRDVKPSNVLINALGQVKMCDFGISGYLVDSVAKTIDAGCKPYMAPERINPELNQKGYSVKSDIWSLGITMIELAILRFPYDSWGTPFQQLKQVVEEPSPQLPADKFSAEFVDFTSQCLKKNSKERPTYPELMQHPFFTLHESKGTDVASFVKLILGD
Procedure: as §2

[11] = molecular target: MARK2 (Homo sapiens (Human), UniProt Q7KZI7); assay: KiNativ assay; format: binding; conditions: H929 live cell
Sequence of MARK2 (Q7KZI7 whole entry): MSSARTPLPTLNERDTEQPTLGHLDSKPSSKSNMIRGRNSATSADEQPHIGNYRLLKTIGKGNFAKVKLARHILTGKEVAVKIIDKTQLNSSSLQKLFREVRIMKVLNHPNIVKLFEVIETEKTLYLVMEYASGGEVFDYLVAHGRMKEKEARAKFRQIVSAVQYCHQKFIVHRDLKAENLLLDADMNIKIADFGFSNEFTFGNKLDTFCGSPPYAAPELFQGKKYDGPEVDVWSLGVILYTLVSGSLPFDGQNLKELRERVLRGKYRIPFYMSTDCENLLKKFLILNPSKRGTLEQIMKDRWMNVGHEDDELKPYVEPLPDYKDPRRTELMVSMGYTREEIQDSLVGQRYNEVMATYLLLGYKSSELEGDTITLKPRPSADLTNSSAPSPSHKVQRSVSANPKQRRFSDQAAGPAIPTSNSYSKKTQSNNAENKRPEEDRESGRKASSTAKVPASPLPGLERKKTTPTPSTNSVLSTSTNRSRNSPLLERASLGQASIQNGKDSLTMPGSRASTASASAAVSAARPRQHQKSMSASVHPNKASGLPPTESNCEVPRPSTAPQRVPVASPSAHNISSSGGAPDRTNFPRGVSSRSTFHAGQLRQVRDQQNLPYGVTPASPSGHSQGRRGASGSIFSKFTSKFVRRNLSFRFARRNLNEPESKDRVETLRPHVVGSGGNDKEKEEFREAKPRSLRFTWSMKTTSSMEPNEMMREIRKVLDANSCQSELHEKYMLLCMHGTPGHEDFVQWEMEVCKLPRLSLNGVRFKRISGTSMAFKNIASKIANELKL
Procedure: as §2

[12] = molecular target: MLKL (Homo sapiens (Human), UniProt Q8NB16); assay: KiNativ assay; format: binding; conditions: H929 live cell
Procedure: as §2

[13] = test system: MST4; assay: KiNativ assay; format: binding; conditions: H929 live cell
Procedure: as §2

[14] = molecular target: NEK8 (Homo sapiens (Human), UniProt Q86SG6); assay: KiNativ assay; format: binding; conditions: H929 live cell
Procedure: as §2

[15] = molecular target: PHKg2 (Homo sapiens (Human), UniProt P15735); assay: KiNativ assay; format: binding; conditions: H929 live cell
Procedure: as §2

[16] = molecular target: PIP4K2A (Homo sapiens (Human), UniProt P48426); assay: KiNativ assay; format: binding; conditions: H929 live cell
Procedure: as §2

[17] = molecular target: PKCz (Homo sapiens (Human), UniProt Q05513); assay: KiNativ assay; format: binding; conditions: H929 live cell
Procedure: as §2

[18] = molecular target: PKD3 (Homo sapiens (Human), UniProt O94806); assay: KiNativ assay; format: binding; conditions: H929 live cell
Sequence of PKD3 (O94806 whole entry): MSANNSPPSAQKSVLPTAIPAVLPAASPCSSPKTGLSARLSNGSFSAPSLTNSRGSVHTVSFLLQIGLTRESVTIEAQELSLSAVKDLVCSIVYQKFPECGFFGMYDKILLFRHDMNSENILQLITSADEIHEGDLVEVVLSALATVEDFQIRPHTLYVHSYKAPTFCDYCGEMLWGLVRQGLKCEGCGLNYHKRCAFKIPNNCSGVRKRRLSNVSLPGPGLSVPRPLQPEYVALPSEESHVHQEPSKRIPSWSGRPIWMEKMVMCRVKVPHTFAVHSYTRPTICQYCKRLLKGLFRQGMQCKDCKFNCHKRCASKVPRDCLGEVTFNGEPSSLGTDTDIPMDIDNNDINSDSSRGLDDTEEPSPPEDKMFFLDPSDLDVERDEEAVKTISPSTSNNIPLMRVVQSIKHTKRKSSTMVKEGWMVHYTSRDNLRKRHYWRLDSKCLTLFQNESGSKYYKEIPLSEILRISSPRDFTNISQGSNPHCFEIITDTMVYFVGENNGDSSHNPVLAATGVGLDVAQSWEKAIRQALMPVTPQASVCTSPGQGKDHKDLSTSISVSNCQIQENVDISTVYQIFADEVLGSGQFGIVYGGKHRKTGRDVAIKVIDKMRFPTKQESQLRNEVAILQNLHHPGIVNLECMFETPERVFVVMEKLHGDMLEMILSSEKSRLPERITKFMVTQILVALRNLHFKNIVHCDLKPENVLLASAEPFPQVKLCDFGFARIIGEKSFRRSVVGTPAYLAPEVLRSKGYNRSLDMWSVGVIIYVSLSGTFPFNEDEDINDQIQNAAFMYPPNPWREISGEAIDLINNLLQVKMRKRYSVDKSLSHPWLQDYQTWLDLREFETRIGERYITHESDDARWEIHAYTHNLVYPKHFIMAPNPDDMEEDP
Procedure: as §2

[19] = molecular target: RSK1 domain1 (Homo sapiens (Human), UniProt Q15418); assay: KiNativ assay; format: binding; conditions: H929 live cell
Sequence of RSK1 domain1 (Q15418 whole entry, the tested form may be a part): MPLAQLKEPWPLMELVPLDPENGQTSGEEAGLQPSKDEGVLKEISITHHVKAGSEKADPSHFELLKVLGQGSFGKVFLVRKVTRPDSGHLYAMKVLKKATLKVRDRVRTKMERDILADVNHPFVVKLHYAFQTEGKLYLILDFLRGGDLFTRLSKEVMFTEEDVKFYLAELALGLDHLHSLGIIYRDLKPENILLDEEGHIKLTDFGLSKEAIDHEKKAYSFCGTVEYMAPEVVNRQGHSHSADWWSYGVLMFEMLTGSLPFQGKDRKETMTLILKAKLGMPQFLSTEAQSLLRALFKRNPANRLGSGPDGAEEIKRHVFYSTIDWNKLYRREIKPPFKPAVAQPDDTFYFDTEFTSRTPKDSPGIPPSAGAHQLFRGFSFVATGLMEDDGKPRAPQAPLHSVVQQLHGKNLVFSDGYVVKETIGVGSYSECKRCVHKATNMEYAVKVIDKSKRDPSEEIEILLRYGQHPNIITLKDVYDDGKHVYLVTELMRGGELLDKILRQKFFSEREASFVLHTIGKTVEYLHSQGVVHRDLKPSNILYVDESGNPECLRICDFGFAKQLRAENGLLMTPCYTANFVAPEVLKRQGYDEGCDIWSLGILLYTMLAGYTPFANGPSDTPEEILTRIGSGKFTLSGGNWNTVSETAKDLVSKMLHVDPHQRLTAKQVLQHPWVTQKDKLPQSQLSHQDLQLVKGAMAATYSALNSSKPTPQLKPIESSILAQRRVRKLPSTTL
Procedure: as §2

[20] = test system: RSK1 domain1, RSK2 domain1, RSK3 domain1; assay: KiNativ assay; format: binding; conditions: H929 live cell
Procedure: as §2

[21] = molecular target: RSK2 domain1 (Homo sapiens (Human), UniProt P51812); assay: KiNativ assay; format: binding; conditions: H929 live cell
Sequence of RSK2 domain1 (P51812 whole entry, the tested form may be a part): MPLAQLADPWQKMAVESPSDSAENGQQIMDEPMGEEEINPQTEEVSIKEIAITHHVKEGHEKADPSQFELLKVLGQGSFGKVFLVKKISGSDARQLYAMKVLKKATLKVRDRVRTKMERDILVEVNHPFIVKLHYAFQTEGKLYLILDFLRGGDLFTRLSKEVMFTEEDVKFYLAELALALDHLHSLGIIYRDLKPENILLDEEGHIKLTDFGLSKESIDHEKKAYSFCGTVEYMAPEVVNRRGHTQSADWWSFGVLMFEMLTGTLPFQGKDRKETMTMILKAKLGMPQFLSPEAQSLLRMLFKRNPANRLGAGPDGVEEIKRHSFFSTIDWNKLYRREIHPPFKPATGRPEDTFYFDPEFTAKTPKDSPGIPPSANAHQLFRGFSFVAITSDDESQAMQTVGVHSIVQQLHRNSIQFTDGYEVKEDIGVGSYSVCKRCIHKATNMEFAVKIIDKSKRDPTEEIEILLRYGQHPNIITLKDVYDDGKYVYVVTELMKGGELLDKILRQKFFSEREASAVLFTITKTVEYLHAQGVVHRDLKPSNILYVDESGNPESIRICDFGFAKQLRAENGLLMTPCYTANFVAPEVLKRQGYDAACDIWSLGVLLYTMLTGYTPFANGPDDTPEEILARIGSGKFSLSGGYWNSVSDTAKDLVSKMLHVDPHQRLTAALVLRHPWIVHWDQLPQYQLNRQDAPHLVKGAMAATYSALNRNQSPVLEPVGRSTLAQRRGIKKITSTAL
Procedure: as §2

[22] = molecular target: RSKL1 (Homo sapiens (Human), UniProt Q96S38); assay: KiNativ assay; format: binding; conditions: H929 live cell
Procedure: as §2

[23] = molecular target: SGK3 (Homo sapiens (Human), UniProt Q96BR1); assay: KiNativ assay; format: binding; conditions: H929 live cell
Sequence of SGK3 (Q96BR1 whole entry): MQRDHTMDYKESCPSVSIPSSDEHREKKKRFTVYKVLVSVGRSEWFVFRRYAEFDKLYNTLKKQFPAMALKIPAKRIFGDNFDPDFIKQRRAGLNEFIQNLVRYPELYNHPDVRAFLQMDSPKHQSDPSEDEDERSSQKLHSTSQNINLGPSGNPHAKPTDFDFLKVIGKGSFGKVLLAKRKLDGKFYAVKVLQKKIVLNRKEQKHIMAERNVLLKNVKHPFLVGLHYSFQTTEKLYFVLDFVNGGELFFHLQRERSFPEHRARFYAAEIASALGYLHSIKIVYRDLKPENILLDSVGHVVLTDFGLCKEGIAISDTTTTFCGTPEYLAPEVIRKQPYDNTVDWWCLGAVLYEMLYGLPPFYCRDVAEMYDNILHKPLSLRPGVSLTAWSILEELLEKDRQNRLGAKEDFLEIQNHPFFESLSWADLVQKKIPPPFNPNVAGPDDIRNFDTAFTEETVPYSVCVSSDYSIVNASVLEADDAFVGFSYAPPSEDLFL
Procedure: as §2

[24] = molecular target: SMG1 (Homo sapiens (Human), UniProt Q96Q15); assay: KiNativ assay; format: binding; conditions: H929 live cell
Procedure: as §2

[25] = molecular target: SRPK2 (Homo sapiens (Human), UniProt P78362); assay: KiNativ assay; format: binding; conditions: H929 live cell
Procedure: as §2

[26] = test system: TAO1, TAO3; assay: KiNativ assay; format: binding; conditions: H929 live cell
Procedure: as §2

[27] = molecular target: TLK1 (Homo sapiens (Human), UniProt Q9UKI8); assay: KiNativ assay; format: binding; conditions: H929 live cell
Procedure: as §2

[28] = molecular target: TLK2 (Homo sapiens (Human), UniProt Q86UE8); assay: KiNativ assay; format: binding; conditions: H929 live cell
Procedure: as §2

[29] = test system: Wnk1, Wnk2, Wnk3; assay: KiNativ assay; format: binding; conditions: H929 live cell
Procedure: as §2

CN(C1CC1)S(=O)(=O)c1ccc(-c2cnc(N)c(-c3ccc4c(c3)CCNC4=O)c2)c(F)c1 [Compound I-28, 4-(6-amino-5-(1-oxo-1,2,3,4-tetrahydroisoquinolin-6-yl)pyridin-3-yl)-N-cyclopropyl-3-fluoro-N-methylbenzenesulfonamide]
IC50 [1]: 40 to 200 nM | IC50 [2]: < 40 nM | % inhibition (range) ([3]; 10 μM): 0.0% | inhibition (10 μM) [3]: 21.4% | inhibition at 10 µM ([4]; read-out: % inhibition (range)): > 90% | inhibition at 10 µM ([4]; read-out: inhibition (10 μM)): 93.8% | inhibition at 10 µM ([5]; read-out: % inhibition (range)): 50 to 75% | inhibition at 10 µM ([5]; read-out: inhibition (10 μM)): 57% | inhibition at 10 µM ([6]; read-out: % inhibition (range)): 0% | inhibition at 10 µM ([6]; read-out: inhibition (10 μM)): -2% | % inhibition (range) ([7]; 10 μM): 0.0% | inhibition (10 μM) [7]: 2.2% | inhibition at 10 µM ([8]; read-out: % inhibition (range)): 0% | inhibition at 10 µM ([8]; read-out: inhibition (10 μM)): 6.4% | % inhibition (range) ([9]; 10 μM): 0.0% | inhibition (10 μM) [9]: −14.8% | inhibition at 10 µM ([10]; read-out: % inhibition (range)): 0% | inhibition at 10 µM ([10]; read-out: inhibition (10 μM)): 27.6% | inhibition at 10 µM ([11]; read-out: % inhibition (range)): 0% | inhibition at 10 µM ([11]; read-out: inhibition (10 μM)): 4.6% | inhibition at 10 µM ([12]; read-out: % inhibition (range)): 0% | inhibition at 10 µM ([12]; read-out: inhibition (10 μM)): 23.9% | % inhibition (range) ([13]; 10 μM): 50-75% | inhibition (10 μM) [13]: 63.9% | inhibition at 10 µM ([14]; read-out: % inhibition (range)): 0% | inhibition at 10 µM ([14]; read-out: inhibition (10 μM)): -3.4% | inhibition at 10 µM ([15]; read-out: % inhibition (range)): 0% | inhibition at 10 µM ([15]; read-out: inhibition (10 μM)): 17.3% | inhibition at 10 µM ([16]; read-out: % inhibition (range)): 0% | inhibition at 10 µM ([16]; read-out: inhibition (10 μM)): 3.2% | inhibition at 10 µM ([17]; read-out: % inhibition (range)): 0% | inhibition at 10 µM ([17]; read-out: inhibition (10 μM)): 6.2% | inhibition at 10 µM ([18]; read-out: % inhibition (range)): 35 to 50% | inhibition at 10 µM ([18]; read-out: inhibition (10 μM)): 36.6% | inhibition at 10 µM ([19]; read-out: % inhibition (range)): 0% | inhibition at 10 µM ([19]; read-out: inhibition (10 μM)): 15.6% | % inhibition (range) ([20]; 10 μM): 0.0% | inhibition (10 μM) [20]: 13.3% | inhibition at 10 µM ([21]; read-out: % inhibition (range)): 0% | inhibition at 10 µM ([21]; read-out: inhibition (10 μM)): 20.3% | inhibition at 10 µM ([22]; read-out: % inhibition (range)): 0% | inhibition at 10 µM ([22]; read-out: inhibition (10 μM)): -26.1% | inhibition at 10 µM ([23]; read-out: % inhibition (range)): 0% | inhibition at 10 µM ([23]; read-out: inhibition (10 μM)): 9.9% | inhibition at 10 µM ([24]; read-out: % inhibition (range)): 35 to 50% | inhibition at 10 µM ([24]; read-out: inhibition (10 μM)): 42.9% | inhibition at 10 µM ([25]; read-out: % inhibition (range)): 0% | inhibition at 10 µM ([25]; read-out: inhibition (10 μM)): 8.5% | % inhibition (range) ([26]; 10 μM): 75-90% | inhibition (10 μM) [26]: 85.5% | inhibition at 10 µM ([27]; read-out: % inhibition (range)): 0% | inhibition at 10 µM ([27]; read-out: inhibition (10 μM)): 1.8% | inhibition at 10 µM ([28]; read-out: % inhibition (range)): 0% | inhibition at 10 µM ([28]; read-out: inhibition (10 μM)): 14.2% | % inhibition (range) ([29]; 10 μM): 0.0% | inhibition (10 μM) [29]: −31.8%
